Results from patent US5620676A, “Biologically active ATP analogs” (priority 1995, dated 1997).
“Also recorded” adds a separate entry of the source. Like-named read-outs stand apart in the source and are kept apart here. One block for each compound: values may come before it.

Tests used:
[1] = system: P2Y receptor (aorta endothelium); test: Relaxation of noradrenalin-contracted rabbit aorta; conditions: for activity/potency/selectivity in words, aorta: rabbit aorta endothelial P2Y receptor
Protocol: (§2) In FIG. 14, the x-axis is also marked in units of the negative log of the molar concentration of applied putative P2Y receptor agonists and the y-axis is marked in units of the percentage relaxation of the 1 μM noradrenalin-induced contraction of rabbit aorta endothelium. In FIGS. 15-16, the x-axis is marked in units of the negative log of the molar concentration of applied putative p^2X receptor agonists and the y-axis is marked in units of the percentage contraction relative to a standard dose of KCl (i.e., 60 mM), as assessed in guinea pig isolated urinary bladder detrussor muscle (FIG. 15) and guinea pig isolated vas deferens (FIG. 16).

[2] = system: P2X receptors; test: Overall activity in P2X receptor systems
[3] = system: P2X and P2Y receptors; test: Overall activity in the seven P2X and P2Y preparations
[4] = target: T1, P2Y receptor (turkey erythrocyte membranes) (Meleagris gallopavo, UniProt P49652); test: Stimulation of phospholipase C (inositol phosphate formation) in turkey erythrocyte membranes; format: biochemical
T1 construct: from tissue; host or cells: washed turkey erythrocytes, ghosts prepared by hypotonic lysis
T1 sequence (P49652 whole entry): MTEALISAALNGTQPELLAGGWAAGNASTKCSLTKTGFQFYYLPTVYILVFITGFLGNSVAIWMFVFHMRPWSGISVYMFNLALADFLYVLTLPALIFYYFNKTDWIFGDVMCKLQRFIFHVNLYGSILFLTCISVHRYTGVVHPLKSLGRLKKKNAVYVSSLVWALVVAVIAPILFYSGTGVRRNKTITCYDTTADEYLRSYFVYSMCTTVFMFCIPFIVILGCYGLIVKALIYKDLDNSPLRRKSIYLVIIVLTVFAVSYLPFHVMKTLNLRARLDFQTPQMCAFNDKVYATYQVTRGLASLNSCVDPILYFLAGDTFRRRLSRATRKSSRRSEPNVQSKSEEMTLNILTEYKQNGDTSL
Method in brief: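 Erythrocytes were labelled 18-24 h at 37 °C with [3H]myoinositol, and ghosts were made by hypotonic lysis. Ghosts (≈175 μg protein) were incubated 5 min at 30 °C in Hepes buffer pH 7.0 with 1 μM GTPγS and nucleotide analogs. Total [3H]inositol phosphates were purified by anion exchange; K0.5 averaged from 3-8 dose-response curves.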

[5] = target: T2, P2X receptor (saphenous artery) (Oryctolagus cuniculus, UniProt G1U3D6); test: Contraction of rabbit saphenous artery; conditions: rabbit saphenous artery
T2 construct: and rabbit saphenous artery; from tissue; host or cells: rabbit saphenous artery
T2 sequence (G1U3D6 1-399): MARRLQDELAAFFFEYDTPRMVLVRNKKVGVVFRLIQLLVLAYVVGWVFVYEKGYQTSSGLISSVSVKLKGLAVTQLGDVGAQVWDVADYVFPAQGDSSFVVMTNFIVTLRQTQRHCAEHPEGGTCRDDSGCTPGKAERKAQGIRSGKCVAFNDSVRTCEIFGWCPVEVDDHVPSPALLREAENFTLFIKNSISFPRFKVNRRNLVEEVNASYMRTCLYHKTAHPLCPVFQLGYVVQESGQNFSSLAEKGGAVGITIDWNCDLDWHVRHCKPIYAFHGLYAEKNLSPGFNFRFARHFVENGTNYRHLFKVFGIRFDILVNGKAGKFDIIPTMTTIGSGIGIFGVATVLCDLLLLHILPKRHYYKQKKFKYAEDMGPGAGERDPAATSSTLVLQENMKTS
Source text: (§1) Muscular relaxation/contraction: Relaxant responses mediated via P2Y receptors were examined in guinea pig taenia coli, rabbit aorta, and rabbit mesenteric artery, as described by Hoyle et al. (Br. J. Pharmacol., 107, 367-374 (1992a)), Burnstock et al., (Br. J. Pharmacol., 90, 383-391 (1987a)), and Rubino et al., (Eur. J. Pharmacol., 212, 237-240 (1992)). Contractile responses mediated via P2X receptors were examined in the guinea pig urinary bladder and vas deferens, and rabbit saphenous artery, also using standard methods (see Hoyle et al., supra., 1992; Hoyle et al., Br. J. Pharmacol., 99, 617-621 (1990); and Burnstock et al., Br. J. Pharmacol., 90, 111-120 (1987b)).
^c For the saphenous artery, the percentages in brackets are response
at 10 μM relative to the contraction produced by 1 μM α,MeATP
ATP in this assay is very weak (EC50 =
1.78 mM). The highest concentrations of the analogues tested were 3-30

[6] = target: T3, P2X receptor (vas deferens) (Cavia porcellus, UniProt A0A286XVA9); test: Contraction of guinea pig isolated vas deferens
T3 sequence (A0A286XVA9 1-399): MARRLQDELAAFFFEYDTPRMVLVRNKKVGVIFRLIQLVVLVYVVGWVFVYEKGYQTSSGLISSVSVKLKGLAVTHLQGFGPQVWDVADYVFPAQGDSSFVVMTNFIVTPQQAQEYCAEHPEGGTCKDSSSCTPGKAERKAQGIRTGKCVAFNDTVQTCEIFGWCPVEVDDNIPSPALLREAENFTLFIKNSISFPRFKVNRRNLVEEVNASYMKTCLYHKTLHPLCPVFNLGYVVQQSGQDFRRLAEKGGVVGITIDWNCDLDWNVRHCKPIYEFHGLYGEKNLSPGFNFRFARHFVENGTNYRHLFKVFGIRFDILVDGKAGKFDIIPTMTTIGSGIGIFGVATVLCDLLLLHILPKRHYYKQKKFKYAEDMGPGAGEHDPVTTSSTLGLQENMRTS

[7] = target: T4, P2X receptor (urinary bladder) (Cavia porcellus, UniProt A0A286XVA9); test: Contraction of guinea pig isolated urinary bladder detrussor muscle; conditions: guinea pig urinary bladder
T4 construct: guinea pig isolated urinary bladder detrussor muscle; from tissue; host or cells: guinea pig isolated urinary bladder detrusor muscle
Protocol: as §2

[8] = target: T5, P2Y receptor (taenia coli) (Cavia porcellus, UniProt P59902); test: Relaxation of carbachol-contracted guinea pig taenia coli
T5 construct: Relaxant responses mediated via P2Y receptors were examined in guinea pig taenia coli; from tissue; host or cells: guinea pig taenia coli (carbachol-contracted)
T5 sequence (P59902 whole entry): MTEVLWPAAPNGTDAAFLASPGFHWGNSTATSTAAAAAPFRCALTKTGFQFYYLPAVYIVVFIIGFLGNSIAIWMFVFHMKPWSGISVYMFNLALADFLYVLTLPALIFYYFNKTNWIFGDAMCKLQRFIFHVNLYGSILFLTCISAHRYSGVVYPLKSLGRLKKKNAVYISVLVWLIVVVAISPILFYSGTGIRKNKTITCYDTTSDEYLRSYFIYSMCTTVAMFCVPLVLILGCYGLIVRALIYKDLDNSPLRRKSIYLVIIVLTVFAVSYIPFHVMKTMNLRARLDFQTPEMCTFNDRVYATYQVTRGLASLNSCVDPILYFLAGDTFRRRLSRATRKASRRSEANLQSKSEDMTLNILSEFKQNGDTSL
Method in brief: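 Guinea pig taenia coli precontracted with 50 nM carbachol; relaxation to applied P2Y agonists expressed as percentage relaxation against negative log molar agonist concentration.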

[9] = system: P2Y receptors; test: Overall activity in P2Y receptor systems
Protocol: Phospholipase C activity: Stimulation of inositol phosphate formation by compounds of the present invention was measured in turkey erythrocyte membranes as described by Harden et al., supra and Boyer et al., supra. The K0.5 values were averaged from 3-8 independently determined dose-response curves for each compound. Briefly, one ml of washed turkey erythrocytes was incubated in inositol-free medium (DMEM; Gibco) with 0.5-1 mCi of 2-[^3 H]myoinositol (20 Ci/mmol; American Radiolabeled Chemicals Inc., St. Louis, Mo.)for 18-24 h in a humidified atmosphere of 95% air 5% CO2 at 37° C. Erythrocyte ghosts were prepared by rapid lysis in hypotonic buffer (5 mM sodium phosphate, pH 7.4, 5 mM MgCl2, 1 mM EGTA) as described by Boyer et al., supra. Phospholipase C activity was measured in 25 μl of [^3 H]inositol-labeled ghosts (≈175 μg of protein, 200-500,000 cpm/assay) in a medium containing 424 μM CaC12, 0.91 mM MgSO4, 2 mM EGTA, 115 mM KCl, 5 mM KH2 PO4, and 10 mM Hepes, pH 7.0. Assay (100 μl or 200 μl final volume) contained 1 μM GTPγS and the indicated concentrations of nucleotide analogs. Ghosts were incubated at 30° C. for 5 min, and total [^3 H]inositol phosphates were quantitated after purification by anion exchange chromatography according to Harden et al. (supra) and Boyer et al. (supra).
as §1

[10] = turkey erythrocyte membranes, mean ± S.E.M. for at least 2 determinations, read-out: phosphatidyl inositol metabolism (K0.5, nM) erythrocyte

overall activity in words, P2X systems [2]: inactive in the P2X receptor systems
EC50 [4, 10]: > 100000 nM
SMILES: CC1(C)O[C@@H]2[C@H](O1)[C@@H](COP(=O)(O)O)O[C@H]2n1cnc2c(N)ncnc21 [2',3'-Isopropylidene-AMP, 2',3'-Isopropylidene AMP]
activity/potency/selectivity in words, aorta ([1]; listed as 2',3'-isopropylidene-AMP): a potent agonist at the rabbit endothelial P2Y receptor
activity/potency/selectivity in words, aorta ([1]; listed as Isopropylidene-AMP): specific for the aortic endothelial P2Y receptor
overall activity in words, all preparations [3]: Neither was particularly active at either P2X or P2Y receptors

activation at 10 µM ([5]; 10 μM, read-out: response at 10 μM relative to the contraction produced by 1 μM α,MeATP, saph. artery): 7.7%
activity/potency in words, vas deferens [6]: inactive in the vas deferens
EC50 [4, 10]: 201000 nM
activity/potency in words, bladder [7]: limited activity in the urinary bladder
SMILES: CC1(C)O[C@@H]2[C@H](O1)[C@@H](COP(=O)(O)OP(=O)(O)OP(=O)(O)O)O[C@H]2n1cnc2c(N)ncnc21 [2',3'-Isopropylidene-ATP, 2',3'-Isopropylidene adenosine 5'-triphosphate]
activity/potency/selectivity in words, aorta [1]: high selectivity
overall activity in words, all preparations [3]: Neither was particularly active at either P2X or P2Y receptors

SMILES: Nc1ncnc2c1ncn2[C@H]1C[C@H](O)[C@@H](COP(=O)(O)OP(=O)(O)OP(=O)(O)O)O1 [2'-Deoxy-ATP, 2'-deoxy-ATP, reference compound]
overall activity in words, P2X systems [2]: inactive in the P2X receptor systems
activity/potency in words, taenia coli ([8]; guinea pig taenia coli): roughly equipotent with ATP in the taenia coli
activity/potency in words, taenia coli ([8]; guinea pig taenia coli, listed as 2'-deoxy-ATP): selectivity
EC50 ([8]; guinea pig taenia coli, log molar units, read-out: relaxation pD2, taenia coli (converted)): 2.51 µM
overall activity in words, all preparations [3]: inactive in the five other preparations
fold less potent than ATP, turkey erythrocyte ([4]; relative to ATP): 7 -fold
activity/potency in words, turkey erythrocyte ([4]; turkey erythrocyte membranes): seven times less potent than ATP in the turkey erythrocyte
EC50 [4, 10]: 19200 nM

SMILES: Nc1ncnc2c1ncn2[C@@H]1O[C@@H]2COP(=O)(OP(=O)(O)CP(=O)(O)O)O[C@H]2[C@H]1O (stereo partly drawn) [3',5'-Cyclic-β,γ-methylene adenosine 5'-triphosphate]
overall activity in words, all preparations ([3]; listed as Cyclized β,γ-methylene ATP): without effect in all seven types of preparation tested
overall activity in words, all preparations ([3]; listed as β,γ-methylene-adenosine-3',5'-cyclic triphosphate): greatly reduce or abolish activity within most P2X and P2Y preparations
EC50 ([4]; at 10^-5 M, read-out: phosphatidyl inositol metabolism (K0.5) erythrocyte, class symbol): > 10000 nM

SMILES: Nc1ncnc2c1ncn2[C@@H]1O[C@H](COP(=O)(O)OP(=O)(O)OP(=O)(O)O)[C@@H](N)[C@H]1O [3'-Amino-3'deoxy-ATP, 3'-Amino-3'-deoxyadenosine 5'-triphosphate, reference compound]
activity/potency in words, saphenous artery [5]: inactive in the saphenous artery
activity/potency in words, vas deferens [6]: more or less as potent as ATP
relaxation pD2, aorta ([1]; rabbit aorta, log molar units): 6.4
EC50 [8]: 3.98 µM
activity/potency in words, taenia coli ([8]; guinea pig taenia coli): almost as potent as ATP in the taenia coli
overall activity in words, all preparations [3]: generally enhanced potency at P2 receptors
times more potent than ATP, turkey erythrocyte ([4]; relative to ATP): approximately 15 times
EC50 [4, 10]: 193 nM
activity/potency in words, bladder [7]: more or less as potent as ATP

activity/potency in words, saphenous artery [5]: no effect
EC50 [4, 10]: 75500 nM
SMILES: Nc1ncnc2c1ncn2[C@@H]1O[C@H](COP(=O)(O)OP(=O)(O)OP(=O)(O)O)C[C@H]1O [3'-Deoxy-ATP, 3'-deoxy-ATP, reference compound]
overall activity in words, P2Y systems [9]: less potent than 2'-deoxy-ATP at P2Y receptors
activity/potency in words, vas deferens [6]: as active as ATP, or nearly so; also recorded: equivalent to the effect of ATP
overall activity in words, all preparations [3]: greatly reduce or abolish activity within most P2X and P2Y preparations
activity/potency in words, bladder [7]: as active as ATP, or nearly so; also recorded: less potent or equal to potency of ATP

activity/potency in words, vas deferens [6]: inactive in the vas deferens
EC50 [4, 10]: > 100000 nM
activity/potency in words, bladder [7]: limited activity in the urinary bladder
SMILES: O=P(O)(O)OP(=O)(O)OP(=O)(O)OC[C@H]1O[C@@H](n2cnc3c2ncn2ccnc32)[C@H](O)[C@@H]1O [N1,N^6 -etheno-ATP, reference compound]
overall activity in words, all preparations [3]: greatly reduce or abolish activity within most P2X and P2Y preparations
